Reference: the NIST ThermoML archive (doi:10.1016/j.jct.2019.07.011)
Numbers after ± are expanded uncertainties.

Assay: xn = mol fraction of the nth substance listed
Details: Gas, Frequency=0.002 MHz, Spherical resonator

Compound `[He]` [helium] + C has a speed of sound (273.16 K, 491.07 kPa, x2 = 0.8999) of 449.8 ± 0.74 m/s, a speed of sound (273.16 K, 495.33 kPa, x2 = 0.95) of 438.87 ± 0.72 m/s and a speed of sound (273.16 K, 993.4 kPa, x2 = 0.8999) of 448.5 ± 0.73 m/s. For the same compound, the speed of sound (273.16 K, 1010.2 kPa, x2 = 0.95) was 437.11 ± 0.72 m/s, the speed of sound (273.16 K, 1705.3 kPa, x2 = 0.8999) was 446.82 ± 0.73 m/s and the speed of sound (273.16 K, 2010.6 kPa, x2 = 0.95) was 433.9 ± 0.71 m/s. For the same compound, the speed of sound (273.16 K, 2484.9 kPa, x2 = 0.8999) was 445.25 ± 0.73 m/s, the speed of sound (273.16 K, 2988.8 kPa, x2 = 0.95) was 431.21 ± 0.71 m/s and the speed of sound (273.16 K, 3490.4 kPa, x2 = 0.8999) was 443.67 ± 0.73 m/s. For the same compound, the speed of sound (273.16 K, 4423.3 kPa, x2 = 0.95) was 428.28 ± 0.7 m/s, the speed of sound (273.16 K, 4498.4 kPa, x2 = 0.8999) was 442.69 ± 0.72 m/s and the speed of sound (273.16 K, 5505.7 kPa, x2 = 0.8999) was 442.38 ± 0.72 m/s. It also gave a speed of sound (273.16 K, 5984.1 kPa, x2 = 0.95) of 426.79 ± 0.7 m/s, a speed of sound (273.16 K, 6475.9 kPa, x2 = 0.95) of 426.75 ± 0.7 m/s and a speed of sound (273.16 K, 6493 kPa, x2 = 0.8999) of 442.8 ± 0.72 m/s. The speed of sound (273.16 K, 6972.4 kPa, x2 = 0.95) was 426.96 ± 0.7 m/s, the speed of sound (273.16 K, 7508.1 kPa, x2 = 0.8999) was 444.07 ± 0.73 m/s and the speed of sound (273.16 K, 7524.3 kPa, x2 = 0.95) was 427.48 ± 0.7 m/s. The speed of sound (273.16 K, 8481.6 kPa, x2 = 0.8999) was 446.2 ± 0.73 m/s, the speed of sound (273.16 K, 8589.5 kPa, x2 = 0.95) was 429.44 ± 0.7 m/s and the speed of sound (273.16 K, 9521.1 kPa, x2 = 0.8999) was 449.34 ± 0.73 m/s. The speed of sound (273.16 K, 9523.8 kPa, x2 = 0.95) was 432.26 ± 0.71 m/s, the speed of sound (273.16 K, 10522 kPa, x2 = 0.8999) was 453.42 ± 0.74 m/s and the speed of sound (273.16 K, 10523 kPa, x2 = 0.95) was 436.5 ± 0.72 m/s. For the same compound, the speed of sound (273.16 K, 11506 kPa, x2 = 0.95) was 441.94 ± 0.72 m/s, the speed of sound (273.16 K, 11530 kPa, x2 = 0.8999) was 458.54 ± 0.75 m/s and the speed of sound (273.16 K, 12532 kPa, x2 = 0.95) was 449.01 ± 0.73 m/s. For the same compound, the speed of sound (273.16 K, 12638 kPa, x2 = 0.8999) was 465.33 ± 0.76 m/s, the speed of sound (273.16 K, 13317 kPa, x2 = 0.95) was 455.32 ± 0.74 m/s and the speed of sound (273.16 K, 13633 kPa, x2 = 0.8999) was 472.45 ± 0.77 m/s. The speed of sound (273.16 K, 14040 kPa, x2 = 0.95) was 461.81 ± 0.75 m/s, the speed of sound (273.16 K, 14537 kPa, x2 = 0.8999) was 479.7 ± 0.78 m/s and the speed of sound (273.16 K, 14722 kPa, x2 = 0.95) was 468.48 ± 0.77 m/s. For the same compound, the speed of sound (273.16 K, 15299 kPa, x2 = 0.95) was 474.53 ± 0.77 m/s, the speed of sound (273.16 K, 15351 kPa, x2 = 0.8999) was 486.78 ± 0.79 m/s and the speed of sound (273.16 K, 15853 kPa, x2 = 0.95) was 480.65 ± 0.78 m/s. It also gave a speed of sound (273.16 K, 16041 kPa, x2 = 0.8999) of 493.25 ± 0.8 m/s, a speed of sound (273.16 K, 16516 kPa, x2 = 0.95) of 488.34 ± 0.8 m/s and a speed of sound (273.16 K, 16537 kPa, x2 = 0.8999) of 498.12 ± 0.81 m/s. For the same compound, the speed of sound (273.16 K, 17032 kPa, x2 = 0.95) was 494.58 ± 0.81 m/s, the speed of sound (273.16 K, 17048 kPa, x2 = 0.8999) was 503.31 ± 0.82 m/s and the speed of sound (273.16 K, 17533 kPa, x2 = 0.95) was 500.83 ± 0.81 m/s. The speed of sound (273.16 K, 17548 kPa, x2 = 0.8999) was 508.55 ± 0.83 m/s, the speed of sound (273.16 K, 18009 kPa, x2 = 0.95) was 506.92 ± 0.82 m/s and the speed of sound (273.16 K, 18059 kPa, x2 = 0.8999) was 514.05 ± 0.83 m/s. For the same compound, the speed of sound (273.16 K, 18537 kPa, x2 = 0.8999) was 519.32 ± 0.84 m/s, the speed of sound (273.16 K, 18552 kPa, x2 = 0.95) was 514.01 ± 0.83 m/s and the speed of sound (273.16 K, 19088 kPa, x2 = 0.95) was 521.16 ± 0.85 m/s. The speed of sound (273.16 K, 19117 kPa, x2 = 0.8999) was 525.88 ± 0.85 m/s, the speed of sound (273.16 K, 19871 kPa, x2 = 0.95) was 531.76 ± 0.86 m/s and the speed of sound (300 K, 482.33 kPa, x2 = 0.8999) was 469.85 ± 0.77 m/s. The speed of sound (300 K, 483.64 kPa, x2 = 0.95) was 458.75 ± 0.75 m/s, the speed of sound (300 K, 985.69 kPa, x2 = 0.95) was 457.69 ± 0.75 m/s and the speed of sound (300 K, 1001 kPa, x2 = 0.8999) was 469.18 ± 0.77 m/s. The speed of sound (300 K, 1985.5 kPa, x2 = 0.8999) was 468.06 ± 0.76 m/s, the speed of sound (300 K, 1996 kPa, x2 = 0.95) was 455.8 ± 0.74 m/s and the speed of sound (300 K, 2984.6 kPa, x2 = 0.8999) was 467.34 ± 0.76 m/s. For the same compound, the speed of sound (300 K, 3212.7 kPa, x2 = 0.95) was 454.1 ± 0.74 m/s, the speed of sound (300 K, 4475.2 kPa, x2 = 0.95) was 453.09 ± 0.74 m/s and the speed of sound (300 K, 4487.3 kPa, x2 = 0.8999) was 467.1 ± 0.76 m/s. It also gave a speed of sound (300 K, 5490.1 kPa, x2 = 0.8999) of 467.58 ± 0.76 m/s, a speed of sound (300 K, 5513.3 kPa, x2 = 0.95) of 452.95 ± 0.74 m/s and a speed of sound (300 K, 6460.8 kPa, x2 = 0.95) of 453.38 ± 0.74 m/s. For the same compound, the speed of sound (300 K, 6494.8 kPa, x2 = 0.8999) was 468.59 ± 0.77 m/s, the speed of sound (300 K, 7011.9 kPa, x2 = 0.95) was 453.9 ± 0.74 m/s and the speed of sound (300 K, 7501.4 kPa, x2 = 0.8999) was 470.2 ± 0.77 m/s. It also gave a speed of sound (300 K, 7543 kPa, x2 = 0.95) of 454.6 ± 0.74 m/s, a speed of sound (300 K, 8430.8 kPa, x2 = 0.95) of 456.23 ± 0.75 m/s and a speed of sound (300 K, 9026.4 kPa, x2 = 0.8999) of 473.76 ± 0.77 m/s. For the same compound, the speed of sound (300 K, 9344.2 kPa, x2 = 0.95) was 458.51 ± 0.75 m/s, the speed of sound (300 K, 10504 kPa, x2 = 0.8999) was 478.72 ± 0.78 m/s and the speed of sound (300 K, 10534 kPa, x2 = 0.95) was 462.72 ± 0.76 m/s. It also gave a speed of sound (300 K, 11500 kPa, x2 = 0.95) of 466.77 ± 0.76 m/s, a speed of sound (300 K, 11505 kPa, x2 = 0.8999) of 482.86 ± 0.79 m/s and a speed of sound (300 K, 12492 kPa, x2 = 0.8999) of 487.56 ± 0.79 m/s. For the same compound, the speed of sound (300 K, 12507 kPa, x2 = 0.95) was 471.79 ± 0.77 m/s, the speed of sound (300 K, 13305 kPa, x2 = 0.95) was 476.35 ± 0.78 m/s and the speed of sound (300 K, 13505 kPa, x2 = 0.8999) was 493.08 ± 0.8 m/s. For the same compound, the speed of sound (300 K, 13998 kPa, x2 = 0.95) was 480.72 ± 0.78 m/s, the speed of sound (300 K, 14495 kPa, x2 = 0.8999) was 499.05 ± 0.81 m/s and the speed of sound (300 K, 14699 kPa, x2 = 0.95) was 485.51 ± 0.79 m/s. For the same compound, the speed of sound (300 K, 15302 kPa, x2 = 0.95) was 489.92 ± 0.8 m/s, the speed of sound (300 K, 15515 kPa, x2 = 0.8999) was 505.8 ± 0.82 m/s and the speed of sound (300 K, 15902 kPa, x2 = 0.95) was 494.56 ± 0.81 m/s. The speed of sound (300 K, 16490 kPa, x2 = 0.8999) was 512.81 ± 0.83 m/s, the speed of sound (300 K, 16491 kPa, x2 = 0.95) was 499.36 ± 0.81 m/s and the speed of sound (300 K, 16994 kPa, x2 = 0.8999) was 516.63 ± 0.84 m/s. It also gave a speed of sound (300 K, 17005 kPa, x2 = 0.95) of 503.74 ± 0.82 m/s, a speed of sound (300 K, 17511 kPa, x2 = 0.8999) of 520.69 ± 0.85 m/s and a speed of sound (300 K, 17525 kPa, x2 = 0.95) of 508.33 ± 0.83 m/s. For the same compound, the speed of sound (300 K, 18012 kPa, x2 = 0.8999) was 524.75 ± 0.85 m/s, the speed of sound (300 K, 18013 kPa, x2 = 0.95) was 512.78 ± 0.83 m/s and the speed of sound (300 K, 18515 kPa, x2 = 0.95) was 517.49 ± 0.84 m/s. The speed of sound (300 K, 18523 kPa, x2 = 0.8999) was 529 ± 0.86 m/s, the speed of sound (300 K, 19011 kPa, x2 = 0.95) was 522.29 ± 0.85 m/s and the speed of sound (300 K, 19043 kPa, x2 = 0.8999) was 533.45 ± 0.86 m/s. It also gave a speed of sound (300 K, 19447 kPa, x2 = 0.95) of 526.6 ± 0.85 m/s, a speed of sound (300 K, 19955 kPa, x2 = 0.8999) of 541.5 ± 0.88 m/s and a speed of sound (325 K, 473.9 kPa, x2 = 0.8999) of 487 ± 0.79 m/s. For the same compound, the speed of sound (325 K, 479.57 kPa, x2 = 0.95) was 476.04 ± 0.78 m/s, the speed of sound (325 K, 976.85 kPa, x2 = 0.8999) was 486.84 ± 0.79 m/s and the speed of sound (325 K, 979.32 kPa, x2 = 0.95) was 475.45 ± 0.78 m/s. It also gave a speed of sound (325 K, 1477.5 kPa, x2 = 0.8999) of 486.66 ± 0.79 m/s, a speed of sound (325 K, 1677.4 kPa, x2 = 0.95) of 474.76 ± 0.77 m/s and a speed of sound (325 K, 2455.5 kPa, x2 = 0.95) of 474.19 ± 0.77 m/s. The speed of sound (325 K, 2481.6 kPa, x2 = 0.8999) was 486.49 ± 0.79 m/s, the speed of sound (325 K, 3481.4 kPa, x2 = 0.95) was 473.83 ± 0.77 m/s and the speed of sound (325 K, 3486.4 kPa, x2 = 0.8999) was 486.7 ± 0.79 m/s. For the same compound, the speed of sound (325 K, 4485.5 kPa, x2 = 0.8999) was 487.28 ± 0.79 m/s, the speed of sound (325 K, 4486.1 kPa, x2 = 0.95) was 473.85 ± 0.77 m/s and the speed of sound (325 K, 5487.2 kPa, x2 = 0.8999) was 488.28 ± 0.8 m/s.
